Source: US20220073496A1, “NOVEL QUINOLINE DERIVATIVE INHIBITOR” (Nanjing Transthera Biosciences Co., Ltd., priority 2018, published 2022)

What was measured:
H1299 cell pMer = biological target: T1, H1299 cell pMer (Homo sapiens, UniProt Q12866); assay: Inhibitory activity on the cell pMer (Western Blot); format: cell-based; details: H1299 cells, compound 0.35, 1.1, 3.3, 10 nM, Human MerMab 200 ng/mL
T1 construct: The H1299 cells were inoculated in a 6-well plate; endogenous in cells; host or cells: H1299
T1 sequence (Q12866 21-999): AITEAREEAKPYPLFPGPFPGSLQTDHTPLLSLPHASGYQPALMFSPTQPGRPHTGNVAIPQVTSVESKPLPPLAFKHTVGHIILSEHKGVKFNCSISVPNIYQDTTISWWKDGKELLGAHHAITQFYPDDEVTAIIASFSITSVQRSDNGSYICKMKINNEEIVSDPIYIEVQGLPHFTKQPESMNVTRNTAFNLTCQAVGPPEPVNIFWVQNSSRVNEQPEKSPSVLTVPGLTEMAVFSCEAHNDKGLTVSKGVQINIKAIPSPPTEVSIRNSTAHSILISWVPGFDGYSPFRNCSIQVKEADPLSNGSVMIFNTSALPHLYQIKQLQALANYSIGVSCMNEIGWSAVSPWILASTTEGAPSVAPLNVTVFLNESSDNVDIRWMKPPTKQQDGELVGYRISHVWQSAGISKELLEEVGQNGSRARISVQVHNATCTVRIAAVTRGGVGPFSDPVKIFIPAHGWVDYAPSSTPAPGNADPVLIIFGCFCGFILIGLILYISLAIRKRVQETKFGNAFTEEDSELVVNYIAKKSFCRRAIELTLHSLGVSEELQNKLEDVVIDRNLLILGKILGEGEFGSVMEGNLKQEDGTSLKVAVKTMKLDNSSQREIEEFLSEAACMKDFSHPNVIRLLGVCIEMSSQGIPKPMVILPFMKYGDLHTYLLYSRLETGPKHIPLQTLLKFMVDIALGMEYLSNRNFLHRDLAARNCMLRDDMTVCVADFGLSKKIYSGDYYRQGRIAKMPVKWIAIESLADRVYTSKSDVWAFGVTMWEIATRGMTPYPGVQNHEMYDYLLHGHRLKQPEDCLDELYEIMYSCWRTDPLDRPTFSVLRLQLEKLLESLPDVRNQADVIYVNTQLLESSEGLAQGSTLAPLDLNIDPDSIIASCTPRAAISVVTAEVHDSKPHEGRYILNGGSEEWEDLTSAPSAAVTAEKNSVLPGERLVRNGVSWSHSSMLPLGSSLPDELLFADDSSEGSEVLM
Method: Assay 6: Test for Inhibitory Activities of the Compounds of the Present Invention on the Cell pMer
H1299 is a non-small cell lung cancer cell.
Test substances: the compounds of the present invention, wherein the structures thereof were as described above.
Test equipment: protein electrophoresis apparatus (manufactured by Bio Rad), transfer unit (manufactured by Bio Rad), exposure unit (manufactured by Tanon), CO2 cell incubator (manufactured by Thermo).
The H1299 cells were inoculated in a 6-well plate (containing 10% FBS 1640 medium, 5×10^5 cells per well), and adherent cells were cultivated at 37° C. in a 5% CO2 condition for 18 hours. The cells were starved overnight. Different concentrations of compounds were added. The final compound concentrations were 0.35, 1.1, 3.3 and 10 nM, and the final DMSO content was 1‰. The negative control wells contained the medium containing 1‰ DMSO. After incubating at 37° C. in a 5% CO2 condition for 60 minutes, Human MerMab (R&D, final concentration 200 ng/mL) was added to each well. After further incubating for 60 minutes, the cell total protein was extracted for Western Blot and the IC50 values were calculated using GraphPad 5.0 software. The inhibitory activity of the compound on the cell pMer was examined.

[1] = Stability in liver microsome of dogs; format: in vitro ADME; details: Dog liver microsome 0.5 mg protein/mL, compound 1 μM, 37° C.; for half-life at 1 μM / microsomal CLint at 1 μM: liver microsomes
Method: Assay 1: Stability assessment of the compounds of the present invention in liver microsome of mice and dogs
Test substances: the compounds of the present invention, wherein the structures and preparations thereof were as described above.
The composition of the incubation system:
Preparation of Test Substances:
An appropriate amount of the compound was accurately weighed and dissolved in DMSO to prepare a 5.0 mM stock solution. The 5.0 mM stock solution was diluted to 1.0 mM with DMSO, and finally diluted with water to a 10 μM test substance working solution for use (the DMSO content in the reaction system was 0.1%).
(1) The liver microsome (20 mg protein/mL) was taken out from the −80° C. refrigerator, pre-incubated at 37° C. with a water-bathing constant temperature vibrator for 3 minutes, and melted for use.
(2) A mixed solution of the incubation system (excluding compounds and β-NADPH) according to the above “composition of the incubation system” for the assay was prepared, and pre-incubated at 37° C. with a water-bathing constant temperature vibrator for 2 minutes.
(3) Control group (excluding β-NADPH): 30 μL of water and 30 μL of compound working solution (10 μM) were added to 240 μL of the mixed solution of the incubation system of step (2), and vortexed for 30 seconds to mix well. The total reaction volume was 300 μL. A duplicate sample was prepared. The sample was incubated at 37° C. with a water-bathing constant temperature vibrator. The timekeeping began and the sampling time points were set at 0 minute and 60 minutes.
(4) Sample group: 70 μL of β-NADPH solution (10 mM) and 70 μL of compound working solution (10 μM) were added to 560 μL of the mixed solution of step (2). The total reaction volume was 700 μL. The resulting mixture was vortexed for 30 seconds to mix well. A duplicate sample was prepared. The sample was incubated at 37° C. with a water-bathing constant temperature vibrator. The timekeeping began and the sampling time points were set at 0 minute, 5 minutes, 10 minutes, 20 minutes, 30 minutes, and 60 minutes after timekeeping.
(5) After vortexing for 3 minutes, the sample was centrifuged at 4000 rpm for 10 minutes.
(6) 50 μL of the supernatant was taken and 150 μL of water was added. The resulting mixture was vortexed to mix well, and analyzed by LC/MS/MS.
The half-life (t1/2) and clearance rate (Cl) were calculated using the following first-order kinetic formula:
Vd=1/protein content in liver microsome
Note: k was the slope of the logarithm of the remaining amount of the compound versus time, and Vd was the apparent distribution volume.

SMILES	IC50 (H1299 cell pMer)	half-life at 1 μM [1]	microsomal CLint at 1 μM [1]	t1/2 [1]
COc1cc2nccc(Oc3ccc(NC(=O)c4cn(C(C)C)cc(-c5ccc(C)cc5)c4=O)nc3)c2cc1OC [Compound 1, N-(5-((6,7-dimethoxyquinolin-4-yl)oxy)pyridin-2-yl)-1-isopropyl-4-oxo-5-p-tolyl-1,4-dihydropyridin-3-carboxamide]	1.1 to 3.3 nM	12.6 min	110 µL/min/mg	
COc1cc2nccc(Oc3ccc(NC(=O)c4cn(C(C)C)cc(-c5ccc(F)cc5)c4=O)nc3)c2cc1OC [Compound 14, N-(5-((6,7-dimethoxyquinolin-4-yl)oxy)pyridin-2-yl)-5-(4-fluorophenyl)-1-isopropyl-4-oxo-1,4-dihydropyridin-3-carboxamide]	0.35 nM	154 min	9 µL/min/mg	
COc1cc2nccc(Oc3ccc(NC(=O)c4nn(C(C)C)cc(-c5ccc(F)cc5)c4=O)nc3)c2cc1OC [Compound 15, N-(5-((6,7-dimethoxyquinolin-4-yl)oxy)pyridin-2-yl)-5-(4-fluorophenyl)-1-isopropyl-4-oxo-1,4-dihydropyridazine-3-carboxamide]	< 0.35 nM	224 min	6.2 µL/min/mg	
COc1cc2nccc(Oc3cnc(NC(=O)c4nn(C(C)C)cc(-c5ccc(F)cc5)c4=O)nc3)c2cc1OC [Compound 16, N-(5-((6,7-dimethoxyquinolin-4-yl)oxy)pyrimidine-2-yl)-5-(4-fluorophenyl)-1-isopropyl-4-oxo-1,4-dihydropyridazine-3-carboxamide]	< 1.1 nM	495 min	2.8 µL/min/mg	
COc1cc2nccc(Oc3cnc(NC(=O)c4cn(C(C)C)cc(-c5ccc(F)cc5)c4=O)nc3)c2cc1OC [Compound 20, N-(5-((6,7-dimethoxyquinolin-4-y)oxy)pyrimidine-2-yl)-5-(4-fluorophenyl)-1-isopropyl-4-oxo-1,4-dihydropyridin-3-carboxamide]	1.1 nM	365 min	3.8 µL/min/mg	
COc1cc2nccc(Oc3ccc(NC(=O)c4nn(C(C)C)cc(-c5ccc(F)cc5)c4=O)cn3)c2cc1OC [Compound 29, N-(6-((6,7-dimethoxyquinolin-4-yl)oxy)pyridin-3-yl)-1-isopropyl-4-oxo-5-para-fluorophenyl-1,4-dihydropyridazine-3-carboxamide]	< 1.1 nM	131 min	10.6 µL/min/mg	
COc1cc2nccc(Oc3ccc(NC(=O)c4cn(C5CC5)cc(-c5ccc(F)cc5)c4=O)nc3)c2cc1OC [Compound 30, N-(5-((6,7-dimethoxyquinolin-4-yl)oxy)pyridin-2-yl)-1-cyclopropyl-4-oxo-5-para-fluorophenyl-1,4-hydropyridin-3-carboxamide]	1.1 to 3.3 nM	56.3 min	24.6 µL/min/mg	
COc1cc2nccc(Oc3ccc(NC(=O)c4nn(C5CC5)cc(-c5ccc(F)cc5)c4=O)nc3)c2cc1OC [Compound 31]	< 0.35 nM			→∞
COc1cc2nccc(Oc3cnc(NC(=O)c4cn(C5CC5)cc(-c5ccc(F)cc5)c4=O)nc3)c2cc1OC [Compound 32, 1-cyclopropyl-N-(5-((6,7-dimethoxyquinolin-4-yl)oxy)pyrimidine-2-yl)-5-(4-fluorophenyl)-4-oxo-1,4-dihydropyridin-3-carboxamide]	< 1.1 nM	210 min	6.6 µL/min/mg	
COc1cc2nccc(Oc3cnc(NC(=O)c4nn(C5CC5)cc(-c5ccc(F)cc5)c4=O)nc3)c2cc1OC [Compound 33]	< 1.1 nM			→∞
COc1cc2nccc(Oc3ncc(NC(=O)c4nn(C(C)C)cc(-c5ccc(F)cc5)c4=O)cn3)c2cc1OC [Compound 34, N-(2-((6,7-dimethoxyquinolin-4-yl)oxy)pyrimidine-5-yl)-5-para-fluorophenyl-1-isopropyl-4-oxo-1,4-dihydropyridazine-3-carboxamide]	< 1.1 nM	495 min	2.8 µL/min/mg	
COc1cc2nccc(Oc3ccc(NC(=O)c4nn(C5CC5)cc(-c5ccc(F)cc5)c4=O)cn3)c2cc1OC [Compound 36]	< 0.35 nM	116 min	12 µL/min/mg	
COc1cc2nccc(Oc3ncc(NC(=O)c4nn(C5CC5)cc(-c5ccc(F)cc5)c4=O)cn3)c2cc1OC [Compound 37, 1-cyclopropyl-N-(2-((6,7-dimethoxyquinolin-4-yl)oxy)pyrimidine-5-yl)-5-para-fluorophenyl-4-oxo-1,4-dihydropyridazine-3-carboxamide]	1.1 to 3.3 nM	169 min	8.2 µL/min/mg	
COc1cc2nccc(Oc3cnc(NC(=O)c4cn(C(C)C)nc(-c5ccc(F)cc5)c4=O)nc3)c2cc1OC [Compound 39, N-(5-((6,7-dimethoxyquinolin-4-yl)oxy)pyrimidine-2-yl)-6-(4-fluorophenyl)-2-isopropyl-5-oxo-2,5-dihydropyridazine-4-carboxamide]	1.1 nM			→∞
COc1cc2nccc(Oc3ncc(NC(=O)c4cn(C(C)C)nc(-c5ccc(F)cc5)c4=O)cn3)c2cc1OC [Compound 40, N-(2-((6,7-dimethoxyquinolin-4-yl)oxy)pyrimidine-5-yl)-6-(4-fluorophenyl)-2-isopropyl-5-oxo-2,5-dihydropyridazine-4-carboxamide]				→∞
COc1cc2nccc(Oc3ccc(NC(=O)c4cn(C(C)C)nc(-c5ccc(F)cc5)c4=O)nc3)c2cc1OC [Compound 41, N-(5-((6,7-dimethoxyquinolin-4-yl)oxy)pyridin-2-yl)-6-(4-fluorophenyl)-2-isopropyl-5-oxo-2,5-dihydropyridazine-4-carboxamide]	< 3.3 nM			
COc1cc2nccc(Oc3ccc(NC(=O)c4cn(C5CC5)nc(-c5ccc(F)cc5)c4=O)nc3)c2cc1OC [Compound 42, 2-cyclopropyl-N-(5--((6,7-dimethoxyquinolin-4-yl)oxy)pyridin-2-yl)-6-(4-fluorophenyl)-5-oxo-2,5-dihydropyridazine-4-carboxamide]	< 1.1 nM			→∞
